# Measured values: patent US20240366598A1, “GLUCOSE-DEPENDENT INSULINOTROPIC POLYPEPTIDE RECEPTOR ANTAGONISTS AND USES THEREOF” (Pfizer Inc., priority 2023, published 2024)
# Counter-ions that a name gives are not always drawn.
# Target: T1, human Glucose-dependent Insulinotropic Polypeptide Receptor (hGIPR) (Homo sapiens, UniProt P48546)
# T1 sequence (P48546 22-466): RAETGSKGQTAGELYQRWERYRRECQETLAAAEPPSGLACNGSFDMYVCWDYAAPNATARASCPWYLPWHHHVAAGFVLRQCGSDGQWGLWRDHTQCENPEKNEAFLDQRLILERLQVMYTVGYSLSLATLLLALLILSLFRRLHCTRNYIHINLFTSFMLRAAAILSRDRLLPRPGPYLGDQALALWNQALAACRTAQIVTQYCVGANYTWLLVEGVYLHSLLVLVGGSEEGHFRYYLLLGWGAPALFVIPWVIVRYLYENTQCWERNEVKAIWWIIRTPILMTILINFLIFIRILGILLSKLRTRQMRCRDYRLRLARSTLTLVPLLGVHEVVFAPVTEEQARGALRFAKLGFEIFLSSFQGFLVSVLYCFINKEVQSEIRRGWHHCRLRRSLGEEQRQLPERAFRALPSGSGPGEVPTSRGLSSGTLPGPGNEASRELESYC
# Assay: Functional in vitro GIPR antagonist potency assay (cAMP HTRF, CHO-K1 cells stably expressing hGIPR, hGIP stimulation at about EC80)
# Type: cell-based
# Conditions: geometric mean, hGIP at estimated EC80, examples marked ^2: overall geometric mean of multiple forms (including salts) tested
# Protocol: Example AA. Functional In Vitro GIPR Antagonist Potency Assay
# The functional in vitro antagonist potency for test compounds was determined by monitoring intracellular cyclic adenosine monophosphate (cAMP) levels in Chinese hamster ovary (CHO)—K1 cells stably expressing the human Glucose-dependent Insulinotropic Polypeptide Receptor (hGIPR). Following agonist activation, hGIPR associates with the G-protein complex causing the Gαs subunit to exchange bound guanosine diphosphate (GDP) for guanosine triphosphate (GTP), followed by dissociation of the Gαs-GTP complex. The activated Gas subunit can couple to downstream effectors to regulate the levels of second messengers or cAMP within the cell. Thereby, determination of intracellular cAMP levels allows for pharmacological characterization. Intracellular cAMP levels are quantitated using a homogenous assay utilizing the Homogeneous Time Resolved Fluorescence (HTRF) technology from Perkin Elmer. […] The two entities compete for binding to a monoclonal anti-cAMP antibody labeled with cryptate. The specific signal is inversely proportional to the concentration of cAMP in the cells.
# Test compounds were solubilized to a concentration of 30 mM in 100% dimethyl sulfoxide (DMSO). An 11-point dilution series using 1 in 3.162-fold serial dilutions was created in 100% DMSO with a top concentration of 8 mM. The serially diluted compound was spotted with an Echo Acoustic liquid handler (Beckman Coulter) into a 384-well assay plate (Corning, Cat No. 3824) at 50 nL/well with duplicate points at each concentration, at a 200× final assay concentration (FAC). The final compound concentration range in the assay was 40 μM to […], with a final DMSO concentration of 0.5%.
# Frozen assay-ready vials (at 1×10^7 cells/vial) of CHO-K1 cells stably expressing the Gs-coupled human GIPR receptor (Eurofins, DiscoverX, Cat No. 95-0146C2) were thawed, counted, and resuspended in assay buffer consisting of Hank's Balanced Salt Solution (HBSS, Lonza Cat No. 10-527) containing 20 mM (4-(2-hydroxyethyl)-1-piperazineethanesulfonic acid (HEPES, Lonza, Cat No. 17-737E), 0.1% bovine serum albumin (BSA, Sigma, Cat No. A7979), and 200 μM 3-isobutyl-1-methylxanthine (IBMX, Sigma, Cat No. 15879) at a density of 4×10^5 cells/mL. Cells were added to assay plate (5 μL/well of 4×10^5 cells/mL stock for 2,000 cells/well final) containing 50 nL of 200× FAC test compound, and incubated at 37° C. (95% O2: 5% CO2) for 2 hours, with micro-clime lids (Labcyte, Cat No. LLS-0310). Following the 2-hour cell and compound incubation, a stimulation mix comprised of hGIPR agonist human glucose-dependent insulinotropic polypeptide (hGIP, full length, Sigma Cat No. G2269) in assay buffer/0.1% DMSO was added to the assay plate (5 μL/well) at an estimated EC80 FAC (based on previous hGIP agonist curves) and incubated for another 30 minutes with micro-clime lids at 37° C. (95% O2: 5% CO2), after which intracellular cAMP levels were quantified as per Perkin Elmer's protocol (5 μL of d2 and then 5 μL cryptate, incubated for 1 hour at room temperature). Emission spectra of samples were measured on a Pherastar plate reader (BMG Labtech Inc) using a HTRF protocol (excitation, 320 nm; emission, 665 nm/620 nm).
# (95% O2: 5% CO2), with a micro-clime lid. Following the 2-hour cell and DMSO incubation, a hGIP concentration response curve at 2× FAC (12-point curve using 1 in 3 serial dilutions, with triplicate points at each concentration, 100 nM final top concentration) in assay buffer/1% DMSO was added (5 μL/well) and incubated for a further 30 minutes with a micro-clime lid at 37° C. (95% O2: 5% CO2), after which intracellular cAMP levels were quantified and samples measured as described previously. Experiments passed quality control if the agonist concentration used for stimulation fell between the on-the-day EC50-EC90. […]
row,Structure (SMILES),IC50
1,"Cc1cc(NC(=O)N2CCC[C@@H]2C(=O)Nc2ccc(-c3ccc(C(=O)O)nc3)cc2)ccc1C1CC1 [Example 174, 5-[4-({1-[(4-cyclopropyl-3-methylphenyl)carbamoyl]-D-prolyl}amino)phenyl]pyridine-2-carboxylic acid]",49 nM
2,"CC(C)c1ccc(NC(=O)N2CCC[C@@H]2C(=O)Nc2ccc(-c3cccc(C(=O)O)n3)cc2)cc1 [Example 9, ammonium 6-{4-[(1-{[4-(propan-2-yl)phenyl]carbamoyl}-D-prolyl)amino]phenyl}pyridine-2-carboxylate]",130 nM
3,"Cc1cc(NC(=O)N2CCC[C@@H]2C(=O)Nc2ccc(-c3ccc(C(=O)O)cc3)cc2)ccc1Cl [Example 43, ammonium 4′-({1-[(4-chloro-3-methylphenyl)carbamoyl]-D-prolyl}amino)[1,1′-biphenyl]-4-carboxylate]",49 nM
4,"CC(C)c1ccc([C@H](C)NC(=O)N2CCC[C@@H]2C(=O)Nc2ccc(-c3ccc(C(=O)O)cc3)cc2)cc1 [Example 37, 4′-{[1-({(1S)-1-[4-(Propan-2-yl)phenyl]ethyl}carbamoyl)-D-prolyl]amino}[1,1′-biphenyl]-4-carboxylic acid]",58 nM
5,"O=C(O)c1ccc(-c2cnc(NC(=O)[C@H]3CCCN3C(=O)Nc3ccc(C(F)(F)F)cc3)c(F)c2)cc1 [Example 24, 4-{5-Fluoro-6-[(1-{[4-(trifluoromethyl)phenyl]carbamoyl}-D-prolyl)amino]pyridin-3-yl}benzoic acid]",110 nM
6,"CC(C)c1ccc(NC(=O)N2CCC[C@@H]2C(=O)Nc2ccc(-c3ccc(C(=O)O)c(C(F)(F)F)c3)cc2)cc1 [Example 68, 4′-[(1-{[4-(propan-2-yl)phenyl]carbamoyl}-D-prolyl)amino]-3-(trifluoromethyl)[1,1′-biphenyl]-4-carboxylic acid]",38 nM
7,"CC(C)c1ccc(NC(=O)N2CC[C@H](C)[C@@H]2C(=O)Nc2ccc(-c3ccc(C(=O)O)cc3)cc2)cc1 (single isomer, unassigned) [Example 34, 4′-{[(3S)-3-Methyl-1-{[4-(propan-2-yl)phenyl]carbamoyl}-D-prolyl]amino}[1,1′-biphenyl]-4-carboxylic acid or 4′-{[(3R)-3-Methyl-1-{[4-(propan-2-yl)phenyl]carbamoyl}-L-prolyl]amino}[1,1′-biphenyl]-4-carboxylic acid]",10 nM
8,"COc1cc(C(=O)O)ccc1-c1ccc(NC(=O)[C@H]2CCCN2C(=O)Nc2ccc(C(C)C)cc2)nc1 [Example 151, 3-methoxy-4-{6-[(1-{[4-(propan-2-yl)phenyl]carbamoyl}-D-prolyl)amino]pyridin-3-yl}benzoic acid]",110 nM
9,"COc1ccc(-c2ccc(NC(=O)[C@H]3CCCN3C(=O)Nc3ccc(C(C)C)cc3)cc2)cc1C(=O)O [Example 93, 4-methoxy-4′-[(1-{[4-(propan-2-yl)phenyl]carbamoyl}-D-prolyl)amino][1,1′-biphenyl]-3-carboxylic acid]",79 nM
10,"O=C(O)c1ccc(-c2ccc(NC(=O)[C@H]3CCCN3C(=O)Nc3ccc(C4CCCCC4)cc3)cc2)cc1 [Example 114, 4′-({1-[(4-cyclohexylphenyl)carbamoyl]-D-prolyl}amino)[1,1′-biphenyl]-4-carboxylic acid]",40 nM
11,"O=C(O)c1ccc(-c2ccc(NC(=O)[C@H]3CCCN3C(=O)Nc3cccc(Cl)c3)cc2)cc1 [Example 74, 4′-({1-[(3-chlorophenyl)carbamoyl]-D-prolyl}amino)[1,1′-biphenyl]-4-carboxylic acid]",82 nM
12,"Cc1cc(NC(=O)N2CCC[C@@H]2C(=O)Nc2ccc(-c3ccc(C(=O)O)cc3)cc2)cnc1C(C)C [Example 145, 4′-[(1-{[5-methyl-6-(propan-2-yl)pyridin-3-yl]carbamoyl}-D-prolyl)amino][1,1′-biphenyl]-4-carboxylic acid, trifluoroacetate salt]",70 nM

# Further lines, results first:
row,IC50,Structure (SMILES)
1,36 nM,"Cc1cc(NC(=O)N2CCC[C@@H]2C(=O)Nc2ccc(-c3ccc(C(=O)O)c(F)c3)cn2)ccc1C(F)(F)F [Example 186, 2-fluoro-4-{6-[(1-{[3-methyl-4-(trifluoromethyl)phenyl]carbamoyl}-D-prolyl)amino]pyridin-3-yl}benzoic acid]"
2,23 nM,"CC(C)c1ccc(NC(=O)N2CCC[C@@H]2C(=O)Nc2ccc(-c3ccc(C(=O)O)cn3)cc2)cc1F [Example 182, 6-{4-[(1-{[3-fluoro-4-(propan-2-yl)phenyl]carbamoyl}-D-prolyl)amino]phenyl}pyridine-3-carboxylic acid]"
3,14 nM,"Cc1cc(C(=O)O)cc(C)c1-c1ccc(NC(=O)[C@H]2CCCN2C(=O)Nc2ccc(C(C)C)cc2)cc1 [Example 67, 2,6-dimethyl-4′-[(1-{[4-(propan-2-yl)phenyl]carbamoyl}-D-prolyl)amino][1,1′-biphenyl]-4-carboxylic acid]"
4,11 nM,"O=C(O)c1ccc(-c2ccc(NC(=O)[C@H]3CCCN3C(=O)NCc3ccc(C(F)(F)F)c(Cl)c3)cc2)cc1 [Example 130, 4′-{[1-({[3-chloro-4-(trifluoromethyl)phenyl]methyl}carbamoyl)-D-prolyl]amino}[1,1′-biphenyl]-4-carboxylic acid]"
5,3 nM,"Cc1cc(NC(=O)N2CCC[C@@H]2C(=O)Nc2ccc(-c3ccc(C(=O)O)cc3)cc2)ccc1C(F)(F)F [Example 106, 4′-[(1-{[3-methyl-4-(trifluoromethyl)phenyl]carbamoyl}-D-prolyl)amino][1,1′-biphenyl]-4-carboxylic acid]"
6,22 nM,"C[C@H](NC(=O)N1CCC[C@@H]1C(=O)Nc1ccc(-c2ccc(C(=O)O)cc2)cc1)c1ccc(C(F)(F)F)cc1 [Example 164, 4′-{[1-({(1S)-1-[4-(trifluoromethyl)phenyl]ethyl}carbamoyl)-D-prolyl]amino}[1,1′-biphenyl]-4-carboxylic acid]"
7,2.7 nM,"O=C(O)c1ccc(-c2ccc(NC(=O)[C@H]3CCCN3C(=O)Nc3ccc(C4CCC4)cc3)cc2)cc1 [Example 23, 4′-({1-[(4-Cyclobutylphenyl)carbamoyl]-D-prolyl}amino)[1,1′-biphenyl]-4-carboxylic acid]"
8,4.2 nM,"Cc1cc(-c2ccc(NC(=O)[C@H]3CCCN3C(=O)Nc3ccc(C(C)C)c(C)c3)nc2)ccc1C(=O)O [Example 185, 2-methyl-4-{6-[(1-{[3-methyl-4-(propan-2-yl)phenyl]carbamoyl}-D-prolyl)amino]pyridin-3-yl}benzoic acid]"
9,9.9 nM,"Cc1cc(-c2ccc(NC(=O)[C@H]3CCCN3C(=O)Nc3ccc(C(C)C)cc3)nc2)ccc1C(=O)O [Example 200, 2-methyl-4-{6-[(1-{[4-(propan-2-yl)phenyl]carbamoyl}-D-prolyl)amino]pyridin-3-yl}benzoic acid]"
